Structures can show the parent of a compound that is named as a salt. Where two headings read alike, the source gives them in different places.
Experiments:
acetylcholinesterase = acetylcholinesterase (Homo sapiens, UniProt P22303); assay: Acetylcholinesterase Inhibition Assay (photometric method); assay type: biochemical
mice = assay type: in vivo; conditions: SDDA; dose 0.003 mg/kg, s.c.; retest after 24 hours
Experimental: This utility can also be ascertained by determining the ability of these compounds to restore cholinergically deficient memory in the Dark Avoidance Assay. In this assay mice are tested for their ability to remember an unpleasant stimulus for a period of 24 hours. A mouse is placed in a chamber that contains a dark compartment; a strong incandescent light drives it to the dark compartment, where arn electric shock is administered through metal plates on the floor. The animal is removed from the testing apparatus and tested again, 24 hours later, for the ability to remember the electric shock.
If scopolamine, an anticholinergic that is known to cause memory impairment, is administered before an animal's initial exposure to the test chamber, the animal re-enters the dark compartment shortly after being placed in the test chamber 24 hours later. This effect of scopolamine is blocked by an active test compounds, resulting in a greater interval before re-entry into the dark compartment.
The test results are expressed as the percent of a group of animals in which the effect of scopolanine is blocked, as manifested by an increased interval between being placed in the test chamber and re-entering the dark compartment. Results of Dark Avoidance Assay for some of the compounds of this invention are presented in Table II along with a result for a reference compounds.

Sequence of acetylcholinesterase (P22303 32-614): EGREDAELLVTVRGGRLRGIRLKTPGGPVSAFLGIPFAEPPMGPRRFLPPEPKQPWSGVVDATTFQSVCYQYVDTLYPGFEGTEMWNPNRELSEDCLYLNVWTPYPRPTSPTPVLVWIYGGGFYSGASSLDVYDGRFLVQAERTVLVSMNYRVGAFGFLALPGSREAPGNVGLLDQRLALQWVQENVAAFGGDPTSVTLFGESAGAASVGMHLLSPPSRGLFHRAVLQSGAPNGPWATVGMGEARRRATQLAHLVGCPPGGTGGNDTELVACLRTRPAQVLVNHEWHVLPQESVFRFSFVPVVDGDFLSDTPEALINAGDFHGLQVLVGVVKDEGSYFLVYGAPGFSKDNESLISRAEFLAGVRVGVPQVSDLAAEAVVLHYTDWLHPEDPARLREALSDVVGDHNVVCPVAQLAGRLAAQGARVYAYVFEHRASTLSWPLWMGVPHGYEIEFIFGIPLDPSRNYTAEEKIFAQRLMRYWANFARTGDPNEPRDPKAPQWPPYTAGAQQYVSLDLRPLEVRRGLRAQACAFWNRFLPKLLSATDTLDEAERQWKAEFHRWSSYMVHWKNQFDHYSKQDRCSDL

| Compound | IC50 (acetylcholinesterase) | IC50 (acetylcholinesterase; photometric method, read-out: IC50 CHE I (acetylcholinesterase inhibition)) | Percent of Animals with Scopolamine Induced Memory Deficit Reversal (mice) |
| --- | --- | --- | --- |
| CNC(=O)Oc1ccc2c3c1O[C@H]1C[C@@H](OC(=O)C(C)C)C=C[C@@]31CCN(C)C2 [6-O-Demethy-6-O-(methylaminocarbonyl)-3-O-(propan-2-yl-carbonyl)galanthamine Hydrochloride] | 47 nM |  |  |
| CNC(=O)Oc1ccc2c3c1O[C@H]1C[C@@H](O)C=C[C@@]31CCN(C)C2 [6-O-Demethyl-6-O-(methylaminocarbonyl)galanthamine] |  | 2 nM | 27% |
